From patent US8664217B2, “Benzodiazepine compound and pharmaceutical composition” (Otsuka Pharmaceutical Co., Ltd., priority 2008, dated 2014)
Counter-ions that a name gives are not always drawn.

These compounds were tested against T1, human Kv1.5 channels (Homo sapiens, UniProt P22460) (assay: Measurement of human Kv1.5 channel current by whole-cell patch clamp method (human Kv1.5-expressing CHO-K1 cell line)). Conditions: human Kv1.5-expressing CHO-K1 cells, step end current at +40 mV, test compound 0.1, 1, 10 μM.
T1 construct: Full-length human Kv1.5 cDNA was cloned from a human heart cDNA library; expressed in transfected cells; host or cells: CHO-K1
Assay type: cell-based
Method: Pharmacological Test 1 (1) Production of Human Kv1.5-Expressing CHO-K1 Cell Lines
CHO-K1 cell lines stably expressing human Kv1.5 channels were prepared in the following manner.
Full-length human Kv1.5 cDNA was cloned from a human heart cDNA library (produced by Stratagene). The obtained human Kv1.5 sequence corresponds to the sequence described in FASEB J. 5, 331-337 (1991).
The obtained human Kv1.5 cDNA was inserted into a plasmid encoding a CMV promoter and a G418 resistance marker to produce a Kv1.5 expression vector. The human Kv1.5 expression vector was transfected into CHO-K1 cells by the lipofectamine method. After culturing the cells in an F-12 medium (produced by Invitrogen Corp.) containing 10% FBS (produced by Invitrogen Corp.) for 3 or 4 days, the medium was replaced with a FBS-containing F-12 medium that included 1,000 μg/ml of G418 (produced by Invitrogen Corp.), and single colonies were isolated. The amount of Kv1.5 channel expression in the single colonies was quantified at the mRNA level by RT-PCR and then quantified at the protein level by western blotting. Finally, the expressed current was analyzed by patch clamp method. Cell lines expressing a current of 200 pA or more per cell were selected as channel-expressing cell lines for activity measurement by patch clamp method.
(3) Measurement of Ion Channel Current by Patch Clamp Method (Human Kv1.5-Expressing CHO-K1 Cell Line)
An experiment was carried out using a patch clamp setup at room temperature (20 to 26° C.). A perfusion chamber having a diameter of 20 mm (flow rate: about 5 ml/min) was mounted on the stage of a phase-contrast inverted microscope (produced by Nikon Corporation) placed on a vibration isolated table. A poly-L-lysine (produced by Sigma)-coated coverslip (diameter: 15 mm, produced by Matsunami Glass Ind., Ltd.) on which human Kv1.5-expressing cells were cultured was placed in the perfusion chamber.
Depolarizing stimulation pulses were applied and ionic current was recorded by using a patch clamp amplifier (EPC-7 or EPC-7 PLUS, produced by HEKA) and a personal computer (manufactured by IBM Corp.) in which software for data acquisition and analysis of ion channel current (PULSE 8.77, produced by HEKA) was installed. The current was measured in the whole-cell configuration of the patch-clamp technique. The tip (resistance: 2 to 4 MΩ) of a borosilicate glass pipette (produced by Sutter Instrument Co.) was gently placed on the cell membrane by using a three-dimensional mechanical micromanipulator (produced by Shoshin EM Corporation). […] Subsequently, stronger suction was applied to break the cell membrane. The capacitative current derived from the cell membrane was corrected using a patch clamp amplifier. Subsequently, the series resistance (Rs) between the pipette and the interior of the cell was measured and corrected.
The composition of the extracellular solution used is shown below. Unless otherwise specified, these components were obtained from Wako Pure Chemical Industries, Ltd.
Each test compound was prepared as a 1000-fold concentrated stock solution that was dissolved in DMSO and then diluted in the extracellular solution.
The composition of the electrode internal solution used is shown below. Unless otherwise specified, these components were obtained from Wako Pure Chemical Industries, Ltd.
(5) Measurement of Human Kv1.5 Current
While the membrane potential was bolded at −80 mV, depolarizing pulses (−80 mV for 0.05 seconds→+40 mV for 0.2 seconds →−40 mV for 0.2 seconds→−80 mV for 0.05 seconds) were applied at a stimulation frequency of 1 Hz to measure Kv1.5 channel current. More specifically, first, while perfusing an extracellular solution containing 0.1% DMSO and holding the membrane potential at −80 mV, depolarizing pulses were applied. The current obtained during the pulse application was recorded as a current in the absence of the test compounds. […]

T1 sequence (P22460 whole entry): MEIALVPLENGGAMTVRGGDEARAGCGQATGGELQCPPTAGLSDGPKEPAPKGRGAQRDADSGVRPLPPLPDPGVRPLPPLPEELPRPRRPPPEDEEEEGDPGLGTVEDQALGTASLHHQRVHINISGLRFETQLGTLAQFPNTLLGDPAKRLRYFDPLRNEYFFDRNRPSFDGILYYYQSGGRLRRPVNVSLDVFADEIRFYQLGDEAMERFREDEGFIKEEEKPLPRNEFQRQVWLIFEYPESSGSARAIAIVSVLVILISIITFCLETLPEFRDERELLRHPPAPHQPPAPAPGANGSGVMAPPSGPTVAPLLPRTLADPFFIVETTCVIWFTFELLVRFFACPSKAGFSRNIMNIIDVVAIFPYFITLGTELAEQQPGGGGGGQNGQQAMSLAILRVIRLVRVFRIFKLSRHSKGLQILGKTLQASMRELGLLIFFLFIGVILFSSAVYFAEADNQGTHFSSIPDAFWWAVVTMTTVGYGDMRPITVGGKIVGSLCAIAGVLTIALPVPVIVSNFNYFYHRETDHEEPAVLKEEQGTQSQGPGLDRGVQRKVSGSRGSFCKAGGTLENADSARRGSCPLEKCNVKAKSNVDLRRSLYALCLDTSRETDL

Row | Compound | IC50 [µM]
1 | CCN1C(=O)C(C)(C)C(=O)N(C)c2cc(OCCCN(CCc3cccnc3)Cc3ccncc3)ccc21 [Example 8, 1-ethyl-3,3,5-trimethyl-7-{3-[(2-pyridin-3-ylethyl)pyridin-4-ylmethylamino]propoxy}-1,5-dihydrobenzo[b][1,4]diazepine-2,4-dione trihydrochloride] | 0.4
2 | CCN1C(=O)C(C)(C)C(=O)N(CC)c2cc(OCCCN(CCc3cccnc3)Cc3ccncc3)ccc21 [Example 14, 1,5-diethyl-3,3-dimethyl-7-{3-[(2-pyridin-3-ylethyl)pyridin-4-ylmethylamino]propoxy}-1,5-dihydrobenzo[b][1,4]diazepine-2,4-dione trihydrochloride] | 0.58
3 | CCN1C(=O)C(C)(C)C(=O)N(C)c2cc(OCCCN(CCn3ccc4ccccc4c3=O)Cc3ccncc3)ccc21 [Example 23, 1-ethyl-3,3,5-trimethyl-7-(3-{[2-(1-oxo-1H-isoquinolin-2-yl)ethyl]pyridin-4-ylmethylamino}propoxy)-1,5-dihydrobenzo[b][1,4]diazepine-2,4-dione dihydrochloride] | 0.18
4 | CCN1C(=O)C(C)(C)C(=O)N(C)c2cc(OCCCN(CCn3ccc4ccoc4c3=O)Cc3ccncc3)ccc21 [Example 31, 1-ethyl-3,3,5-trimethyl-7-(3-{[2-(7-oxo-7H-furo[2,3-c]pyridin-6-yl)ethyl]pyridin-4-ylmethylamino}propoxy)-1,5-dihydrobenzo[b][1,4]diazepine-2,4-dione dihydrochloride] | 1.3
5 | Cc1ccccc1CN(CCCOc1ccc2c(c1)N(C)C(=O)C(C)(C)C(=O)N2C)CCc1cccnc1 [Example 50, 1,3,3,5-tetramethyl-7-{3-[(2-methylbenzyl)-(2-pyridin-3-ylethyl)amino]propoxy}-1,5-dihydrobenzo[b][1,4]diazepine-2,4-dione dihydrochloride] | 0.25
6 | CN1C(=O)C(C)(C)C(=O)N(C)c2cc(OCCCN(CCc3cccnc3)Cc3ccnc4ccccc34)ccc21 [Example 51, 1,3,3,5-tetramethyl-7-{3-[(2-pyridin-3-ylethyl)-(quinolin-4-ylmethyl)amino]propoxy}-1,5-dihydrobenzo[b][1,4]diazepine-2,4-dione trihydrochloride] | 0.21
7 | CCN1C(=O)C(C)(C)C(=O)N(C)c2cc(OCCCN(CCn3ccc4ccsc4c3=O)Cc3ccncc3)ccc21 [Example 68, 1-ethyl-3,3,5-trimethyl-7-(3-{[2-(7-oxo-7H-thieno[2,3-c]pyridin-6-yl)ethyl]pyridin-4-ylmethylamino}propoxy)-1,5-dihydrobenzo[b][1,4]diazepine-2,4-dione] | 0.38
8 | CCN1C(=O)C(C)(C)C(=O)N(C)c2cc(OCCCN(CCn3ccc4ccccc4c3=O)Cc3ccc(C#N)cc3)ccc21 [Example 85] | 0.15
9 | CCN1C(=O)C(C)(C)C(=O)N(C)c2cc(OCCCN(CCn3ccc4ccccc4c3=O)Cc3ccsc3)ccc21 [Example 125] | 0.19
10 | CCN1C(=O)C(C)(C)C(=O)N(C)c2cc(OCCCN(CCn3ccc4ccccc4c3=O)Cc3ccco3)ccc21 [Example 132] | 0.27
11 | CCN1C(=O)C(C)(C)C(=O)N(C)c2cc(OCCCN(CCc3cccnc3)Cc3ccccc3)ccc21 [Example 200] | 0.29
12 | CCN1C(=O)C(C)(C)C(=O)N(C)c2cc(OCCCN(CCc3cccnc3)Cc3cccc(C#N)c3)ccc21 [Example 229] | 0.16
13 | CCN1C(=O)C(C)(C)C(=O)N(C)c2cc(OCCCN(CCn3ccc4ccoc4c3=O)Cc3ccccc3C)ccc21 [Example 398] | 0.22
14 | CCN1C(=O)C(C)(C)C(=O)N(C)c2cc(OCCCN(CCn3ccc4ccoc4c3=O)Cc3cccs3)ccc21 [Example 417] | 0.18
15 | CCN1C(=O)C(C)(C)C(=O)N(C)c2cc(OCCCN(CCn3ccc4oc(C)cc4c3=O)Cc3ccncc3)ccc21 [Example 464, 1-ethyl-3,3,5-trimethyl-7-(3-{[2-(2-methyl-4-oxo-4H-furo[3,2-c]pyridin-5-yl)ethyl]pyridin-4-ylmethylamino}propoxy)-1,5-dihydrobenzo[b][1,4]diazepine-2,4-dione dihydrochloride] | 0.44
16 | CCN1C(=O)C(C)(C)C(=O)N(C)c2cc(OCCCN(CCn3ccc4occc4c3=O)Cc3cccnc3)ccc21 [Example 551, 1-ethyl-3,3,5-trimethyl-7-(3-{[2-(4-oxo-4H-furo[3,2-c]pyridin-5-yl)ethyl]pyridin-3-ylmethylamino}-propoxy)-1,5-dihydrobenzo[b][1,4]diazepine-2,4-dione] | 0.39
17 | CCN1C(=O)C(C)(C)C(=O)N(C)c2cc(OCCCN(CCn3ccc4oc(C)cc4c3=O)Cc3cnccc3C)ccc21 [Example 573, 1-ethyl-3,3,5-trimethyl-7-{3-[[2-(2-methyl-4-oxo-4H-furo[3,2-c]pyridin-5-yl)ethyl]-(4-methylpyridin-3-ylmethyl)amino]propoxy}-1,5-dihydrobenzo[b][1,4]diazepine-2,4-dione] | 0.33

More lines, in order of falling IC50, values ahead:

Row | IC50 [µM] | Compound
18 | 0.69 | CN(CCN(CCCOc1ccc2c(c1)N(C)C(=O)C(C)(C)C(=O)N2C)Cc1ccncc1)C(=O)c1ccccc1 [Example 45, N-methyl-N-(2-{pyridin-4-ylmethyl-[3-(1,3,3,5-tetramethyl-2,4-dioxo-2,3,4,5-tetrahydro-1H-benzo[b][1,4]diazepin-7-yloxy)propyl]amino}ethyl)benzamide dihydrochloride]
19 | 0.58 | CCCN1C(=O)C(C)(C)C(=O)N(C)c2cc(OCCCN(CCc3cccnc3)Cc3ccncc3)ccc21 [Example 10, 3,3,5-trimethyl-1-propyl-7-{3-[(2-pyridin-3-ylethyl)pyridin-4-ylmethylamino]propoxy}-1,5-dihydrobenzo[b][1,4]diazepine-2,4-dione trihydrochloride]
20 | 0.54 | CN1C(=O)C(C)(C)C(=O)N(C)c2cc(OCCCN(CCc3cccnc3)Cc3ccncc3)ccc21 [Example 19, 1,3,3,5-tetramethyl-7-{3-[(2-pyridin-3-ylethyl)pyridin-4-ylmethylamino]propoxy}-1,5-dihydrobenzo[b][1,4]diazepine-2,4-dione trihydrochloride]
21 | 0.42 | CCN1C(=O)C(C)(C)C(=O)N(C)c2cc(OCCCN(CCn3ccc4sccc4c3=O)Cc3cccnc3)ccc21 [Example 568, 1-ethyl-3,3,5-trimethyl-7-(3-{[2-(4-oxo-4H-thieno[3,2-c]pyridin-5-yl)ethyl]pyridin-3-ylmethylamino}-propoxy)-1,5-dihydrobenzo[b][1,4]diazepine-2,4-dione]
22 | 0.28 | CCN1C(=O)C(C)(C)C(=O)N(C)c2cc(OCCCN(CCc3cccnc3)Cc3ccncc3C)ccc21 [Example 54, 1-ethyl-3,3,5-trimethyl-7-{3-[(3-methylpyridin-4-ylmethyl)-(2-pyridin-3-ylethyl)amino]propoxy}-1,5-dihydrobenzo[b][1,4]diazepine-2,4-dione trihydrochloride]
23 | 0.24 | CCN1C(=O)C(C)(C)C(=O)N(C)c2cc(OCCCN(CCn3c(=O)ccc4ccccc43)Cc3ccncc3)ccc21 [Example 63, 1-ethyl-3,3,5-trimethyl-7-(3-{[2-(2-oxo-2H-quinolin-1-yl)ethyl]pyridin-4-ylmethylamino}propoxy)-1,5-dihydrobenzo[b][1,4]diazepine-2,4-dione]
24 | 0.19 | CCN1C(=O)C(C)(C)C(=O)N(C)c2cc(OCCCN(CCn3ccc4ccoc4c3=O)Cc3ccc(C(F)(F)F)cc3)ccc21 [Example 395]
25 | 0.18 | CCN1C(=O)C(C)(C)C(=O)N(C)c2cc(OCCCN(CCc3cccnc3)Cc3ccccc3-c3cccnc3)ccc21 [Example 242]
26 | 0.16 | CCN1C(=O)C(C)(C)C(=O)N(C)c2cc(OCCCN(CCn3ccc4ccoc4c3=O)Cc3ccc(C#N)cc3)ccc21 [Example 380]
